Laboratory results taken from publication PMC10619143, “Development of a covalent cereblon-based PROTAC employing a fluorosulfate warhead” (RSC Chemical Biology, 2023).

Biological target: T1, cereblon (CRBN) (Homo sapiens, UniProt Q96SW2)
T1 construct: CRBN-DDB1ΔB complex; with DDB1ΔB
Experiment: intact protein MS covalent labelling and MS/MS site mapping (also cellular NanoBRET IC50 […] at […] h)
Format: binding

T1 sequence (Q16531 2-1140): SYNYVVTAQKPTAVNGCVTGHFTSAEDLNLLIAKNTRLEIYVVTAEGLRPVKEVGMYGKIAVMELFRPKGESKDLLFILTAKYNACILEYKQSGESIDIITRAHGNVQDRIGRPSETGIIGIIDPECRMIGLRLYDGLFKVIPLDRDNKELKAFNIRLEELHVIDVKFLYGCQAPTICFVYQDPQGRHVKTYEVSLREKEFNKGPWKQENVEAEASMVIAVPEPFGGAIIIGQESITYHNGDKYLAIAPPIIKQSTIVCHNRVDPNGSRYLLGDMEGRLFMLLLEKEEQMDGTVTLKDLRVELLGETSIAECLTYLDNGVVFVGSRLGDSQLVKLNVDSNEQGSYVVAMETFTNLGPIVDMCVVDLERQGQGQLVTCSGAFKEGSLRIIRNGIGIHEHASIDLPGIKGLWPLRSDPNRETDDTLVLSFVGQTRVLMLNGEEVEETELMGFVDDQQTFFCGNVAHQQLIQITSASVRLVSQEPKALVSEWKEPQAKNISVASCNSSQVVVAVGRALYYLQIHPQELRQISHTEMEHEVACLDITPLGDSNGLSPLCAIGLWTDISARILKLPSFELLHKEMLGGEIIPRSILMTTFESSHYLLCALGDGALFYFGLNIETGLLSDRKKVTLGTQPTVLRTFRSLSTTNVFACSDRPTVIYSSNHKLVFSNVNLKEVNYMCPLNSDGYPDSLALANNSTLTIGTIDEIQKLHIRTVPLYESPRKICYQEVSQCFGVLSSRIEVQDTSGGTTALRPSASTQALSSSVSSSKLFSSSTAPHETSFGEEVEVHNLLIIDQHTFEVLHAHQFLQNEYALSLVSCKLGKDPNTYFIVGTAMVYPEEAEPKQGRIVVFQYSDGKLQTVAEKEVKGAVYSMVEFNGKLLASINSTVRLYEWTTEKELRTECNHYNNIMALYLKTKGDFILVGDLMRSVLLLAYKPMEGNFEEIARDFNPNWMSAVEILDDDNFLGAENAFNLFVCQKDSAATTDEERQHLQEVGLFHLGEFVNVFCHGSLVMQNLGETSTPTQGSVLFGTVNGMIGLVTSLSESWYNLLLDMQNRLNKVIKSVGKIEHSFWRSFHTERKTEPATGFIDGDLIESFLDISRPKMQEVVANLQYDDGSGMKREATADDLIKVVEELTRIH
T1 sequence (Q96SW2 whole entry): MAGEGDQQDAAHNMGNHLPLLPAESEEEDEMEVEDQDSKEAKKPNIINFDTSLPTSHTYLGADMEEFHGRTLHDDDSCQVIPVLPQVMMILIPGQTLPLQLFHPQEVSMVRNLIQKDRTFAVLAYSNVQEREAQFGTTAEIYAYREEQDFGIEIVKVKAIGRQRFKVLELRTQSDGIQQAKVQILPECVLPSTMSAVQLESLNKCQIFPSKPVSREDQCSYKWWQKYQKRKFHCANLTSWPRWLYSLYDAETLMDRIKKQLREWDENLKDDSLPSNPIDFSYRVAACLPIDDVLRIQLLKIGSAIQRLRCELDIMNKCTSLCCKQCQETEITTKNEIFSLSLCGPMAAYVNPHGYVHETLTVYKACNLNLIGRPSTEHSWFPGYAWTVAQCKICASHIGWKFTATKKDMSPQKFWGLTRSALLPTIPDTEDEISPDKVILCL

In the case of `Cc1sc2c(c1C)C(c1ccc(Cl)cc1)=N[C@@H](CC(=O)Nc1ccc(OCCOCCOCCOCCNc3cc(OS(=O)(=O)F)cc4c3C(=O)N(C3CCC(=O)NC3=O)C4=O)cc1)c1nnc(C)n1-2` (stereo partly shown) [FS-ARV-825], the “% labelled (10 μM, 24 h)” value is reported as ~ 50 % labelled (10 μM, 24 h).
